Consider one compound from ChEMBL document CHEMBL1155692, “An unusual nitrogenous terphenyl derivative from fruiting bodies of the basidiomycete Sarcodon leucopus” (2000).

In brackets after ≈: the same amount, converted by molar mass.

One experiment has as its system KB. Put plainly: Cytotoxicity against human KB cells. It counts as functional. As to conditions: read-out: ED50 (the source's name).
A further experiment concerns P388. Put plainly: Cytotoxicity against mouse P388 cells. The class given is functional. The conditions noted are these: read-out: ED50 (the source's name).

Take `CC[C@@H](C)[C@]12Oc3cc(-c4c(O)c(O)c(-c5ccc(OC(C)=O)cc5)c(OC(C)=O)c4OC(C)=O)ccc3O[N+]1([O-])C(O)=C([C@@H](C)CC)N(O)C2=O` (some centres not stated) [SARCODONIN]: the EC50 turned out to be 10 mg/L (≈ 13.8 µM) in the experiment on KB and 27 mg/L (≈ 37.4 µM) in the experiment with P388.
